Experimental data from US20240299376A1, “METHOD OF TREATING A CONDITION USING A […] EFFECTIVE DOSE OF 1-(1-OXO-1,2-DIHYDROISOQUINOLIN-5-YL)-5-(TRIFLUOROMETHYL)-N-(2-(TRIFLUOROMETHYL)PYRIDIN-4-YL)-1H-PYRAZOLE-4-CARBOXAMIDE” (Janssen Pharmaceutica NV, priority 2021, published 2024).
Marks after values point to notes of the source that are not given here.

How the values were obtained:
[1] = Serum and tumor levels after a single oral dose in male OCI-LY3 tumor-bearing NSG mice; type: in vivo; details: 100 mg/kg single oral dose, PEG400 solution, mean (SD)
Procedure: For PD, when tumors reached 550-750 mm^3 animals were assigned randomly into the treatment groups and treated as presented in Table 5. Dose volumes were adjusted to individual body weights at 10 mL/kg. For both PD studies, serum was collected at 2 and 12 hours post treatment from the retro-orbital sinus. At 24 hours post treatment, animals were bled via decapitation and tumors were excised, weighed, and divided for bioanalysis and ex vivo PD analysis. Blood was centrifuged at 10,000 rpm and serum divided for bioanalysis and PD analysis.
Serum samples were collected at 2, 12, and 24 hours post dose and tumor samples were collected 24 hours post dose.

[2] = Single oral dose plasma PK in fasted dogs; type: in vivo, dog; details: for bioavailability / AUC(0-inf) / Cmax / Tmax / AUC(0-t) / half-life: beagle, dog, plasma
Source text: With the suspension formulation the double-peak phenomenon is even more pronounced.
As observed in rats, dose escalation in dogs resulting in proportional or dose-related exposure with the PEG400 solution was unsuccessful in identifying a vehicle suitable for toxicology studies.

[3] = 14-day oral toxicity study toxicokinetics in Sprague-Dawley rats; type: in vivo; details: rat, plasma; for Cmax / AUC(0-t): mean; for AUC(0-t): read-out: AUC0-24 h; for Tmax: range
Procedure: (§1) Repeated-dose PK (toxicokinetics) were obtained as part of the repeated oral dose toleration toxicity studies in rats and dogs.
There was no further increase in the daily exposure parameters at 1,000 mg/kg relative to those from 200 mg/kg/day. There was no effect of gender on exposure and there was no increase in daily exposure parameters on Day 14 relative to those observed after the first dose.

[4] = 14-day oral toxicity study toxicokinetics in dogs (beagles); type: in vivo, dog; details: for Cmax: female, beagle, dog, in vivo, po, 250 mg/kg/day
Procedure: as §1
However, there was no increase in the exposure parameters at 250 mg/kg/day from the first day of dosing until Day 7 when the dose group was terminated.

[5] = Pharmacokinetic modeling and simulations to predict the human dose; details: corresponds to mouse trough at 10 mg/kg BID after accounting for protein binding difference mice/human
Procedure: According to the tested scenario, the minimum predicted efficacious dose is approximately 110 mg given once daily.
The pharmacokinetic modeling was used based on available non-clinical pharmacokinetic data and allometric scaling. In addition, modeling using GastroPlus and SimCYP was also used to guide PK parameter prediction.

[6] = female, po, 100 mg/kg, 2F, 100 mg/kg PO, 100% PEG400 solution, Study 7
[7] = female, po, 280 mg/kg, 2F, 280 mg/kg PO, 100% PEG400 solution, Study 7
[8] = male, po, 5 mg/kg, 3M (N = 2 used), 5 mg/kg PO, 100% PEG400 solution, Study 1
[9] = male, po, 5 mg/kg, 3M, 5 mg/kg PO, 0.5% HPMC suspension, Study 4
[10] = male, po, 5 mg/kg, 3M, 5 mg/kg PO, -ZAF salt nanosuspension (HPMC:DOSS suspension), Study 5
[11] = male, po, 20 mg/kg, 3M, 20 mg/kg PO, 0.5% HPMC suspension, Study 2
[12] = male, po, 20 mg/kg, 3M, 20 mg/kg PO, 0.5% HPMC suspension, Study 4
[13] = male, po, 20 mg/kg, 3M, 20 mg/kg PO, 100% PEG400 solution, Study 3
[14] = male, po, 20 mg/kg, 3M, 20 mg/kg PO, -ZAF salt nanosuspension (HPMC:DOSS suspension), Study 5
[15] = male, po, 22.5 mg/kg, 3M, 22.5 mg/kg PO, PEG400/PVP VA 90:10 solution, Study 6
[16] = female, 30 mg/kg/day, female, Day 0, 30 mg/kg/day
[17] = female, 30 mg/kg/day, female, Day 13, 30 mg/kg/day
[18] = female, 200 mg/kg/day, female, Day 0, 200 mg/kg/day
[19] = female, 200 mg/kg/day, female, Day 13, 200 mg/kg/day
[20] = female, 1000 mg/kg/day, female, Day 0, 1,000 mg/kg/day
[21] = female, 1000 mg/kg/day, female, Day 13, 1,000 mg/kg/day
[22] = male, 30 mg/kg/day, male, Day 0, 30 mg/kg/day
[23] = male, 30 mg/kg/day, male, Day 13, 30 mg/kg/day
[24] = male, 200 mg/kg/day, male, Day 0, 200 mg/kg/day
[25] = male, 200 mg/kg/day, male, Day 13, 200 mg/kg/day
[26] = male, 1000 mg/kg/day, male (4M), Day 13, 1,000 mg/kg/day
[27] = male, 1000 mg/kg/day, male, Day 0, 1,000 mg/kg/day
[28] = Day 1, 10 to 50 mg/kg/day (5-fold increase in dose)
[29] = Day 1, 10 to 250 mg/kg/day (25-fold increase in dose)

## O=C(Nc1ccnc(C(F)(F)F)c1)c1cnn(-c2cccc3c(=O)[nH]ccc23)c1C(F)(F)F [Compound A, 1-(1-oxo-1,2-dihydroisoquinolin-5-yl)-5-(trifluoromethyl)-N-[2-(trifluoromethyl)pyridin-4-yl]-1H-pyrazole-4-carboxamide]
[1]; 12 h post dose
  Serum concentration: 4,118 (1,322 ng/ml
[1]; 24 h post dose, N = 4
  Tumor concentration: 1,180 (223)^b ng/g
[1]; male, NSG, mouse, serum, 2 h post dose
  concentration at 2 h: 3730 ng/mL
[1]; male, NSG, mouse, serum, 24 h post dose
  concentration at 24 h: 1060 ng/mL
[2]; Study 7, doses of 100, 280, and 560 mg/kg, PEG400 solution
  increase of Cmax or AUC with dose: ≤ 25%
[2]; po, 5 mg/kg, 5 mg/kg PO, -ZAF salt nanosuspension (HPMC:DOSS suspension), Study 5
  bioavailability: 12 to 69%
[2]; po, 20 mg/kg, 20 mg/kg PO, 0.5% HPMC suspension, Study 4
  bioavailability: 7 to 89%
[2]; po, 20 mg/kg, 20 mg/kg PO, -ZAF salt nanosuspension (HPMC:DOSS suspension), Study 5
  bioavailability: 6.7%
[2]; po, 22.5 mg/kg, 22.5 mg/kg PO, PEG400/PVP VA 90:10 solution, Study 6
  bioavailability: > 100%
[2]; po, 560 mg/kg, 560 mg/kg PO, 100% PEG400 solution, Study 7, N = 1
  AUC(0-inf): 1760 µg·h/mL
[2]; [6]
  AUC(0-inf): 1360 µg·h/mL
  Cmax: 24300 ng/mL
  Tmax: 15.5 h
[2]; female, po, 100 mg/kg, 2F, 100 mg/kg PO, 100% PEG400 solution, Study 7, Tlast = 96 hours
  AUC(0-t): 1250 µg·h/mL
[2]; [7]
  AUC(0-inf): 1680 µg·h/mL
  Cmax: 30600 ng/mL
[2]; female, po, 280 mg/kg, 2F, 280 mg/kg PO, 100% PEG400 solution, Study 7, Tlast = 96 hours
  AUC(0-t): 1510 µg·h/mL
[2]; female, po, 280 mg/kg, 2F, 280 mg/kg PO, 100% PEG400 solution, Study 7, median
  Tmax: 24 h
[2]; female, po, 280 mg/kg, 2F, 280 mg/kg PO, PEG400/PVP VA 90:10 solution, Study 7
  Cmax: 106000 ng/mL
[2]; female, po, 280 mg/kg, 2F, 280 mg/kg PO, PEG400/PVP VA 90:10 solution, Study 7, Tlast = 96 hours
  AUC(0-t): 1970 µg·h/mL
[2]; female, po, 280 mg/kg, 2F, 280 mg/kg PO, PEG400/PVP VA 90:10 solution, Study 7, median
  Tmax: 24 h
[2]; female, po, 480 mg/kg, 2F, 480 mg/kg PO, PEG400/PVP VA 90:10 solution, Study 7
  Cmax: 76600 ng/mL
[2]; female, po, 480 mg/kg, 2F, 480 mg/kg PO, PEG400/PVP VA 90:10 solution, Study 7, Tlast = 96 hours
  AUC(0-t): 1510 µg·h/mL
[2]; female, po, 480 mg/kg, 2F, 480 mg/kg PO, PEG400/PVP VA 90:10 solution, Study 7, median
  Tmax: 27.5 h
[2]; female, po, 560 mg/kg, 2F, 560 mg/kg PO, 100% PEG400 solution, Study 7
  Cmax: 31800 ng/mL
[2]; female, po, 560 mg/kg, 2F, 560 mg/kg PO, 100% PEG400 solution, Study 7, Tlast = 96 hours
  AUC(0-t): 2010 µg·h/mL
[2]; female, po, 560 mg/kg, 2F, 560 mg/kg PO, 100% PEG400 solution, Study 7, median
  Tmax: 24 h
[2]; from 22.5 to 280 mg/kg, PVP VA in PEG400 solution
  increase in Cmax and AUC: approximately 5 fold
[2]; male, oral, 5 mg/kg, 5 mg/kg PO, 100% PEG400 solution, Study 1, calculated using the IV data from Study 1
  bioavailability: > 100%
[2]; male, po, 5 mg/kg, 5 mg/kg PO, 0.5% HPMC suspension, Study 4
  bioavailability: 14 to 66%
[2]; [8]
  AUC(0-inf): 146 µg·h/mL
  Cmax: 6150 ng/mL
  Tmax: 2 h
  half-life: 17.3 h
[2]; male, po, 5 mg/kg, 3M (N = 2 used), 5 mg/kg PO, 100% PEG400 solution, Study 1, Tlast = 48 hours
  AUC(0-t): 143 µg·h/mL
[2]; [9]
  AUC(0-inf): 30.7 µg·h/mL
  AUC(0-t): 43.7 µg·h/mL
  Cmax: 2030 ng/mL
  Tmax: 9 h
  half-life: 21.8 h
[2]; [10]
  AUC(0-inf): 26.4 µg·h/mL
  AUC(0-t): 43.7 µg·h/mL
  Cmax: 1450 ng/mL
  Tmax: 9.33 h
  half-life: 11.5 h
[2]; male, po, 20 mg/kg, 20 mg/kg PO, 0.5% HPMC suspension, Study 2, N = 1 animal with low exposure
  AUC(0-inf): 15.6 µg·h/mL
[2]; male, po, 20 mg/kg, 20 mg/kg PO, 100% PEG400 solution, Study 3
  bioavailability: 33 to 72%
[2]; [11]
  Cmax: 4010 ng/mL
  Tmax: 16.7 h
  half-life: 17.8 h
[2]; male, po, 20 mg/kg, 3M, 20 mg/kg PO, 0.5% HPMC suspension, Study 2, Tlast = 72 hours
  AUC(0-t): 153 µg·h/mL
[2]; [12]
  AUC(0-inf): 31.8 µg·h/mL
  AUC(0-t): 160 µg·h/mL
  Cmax: 4080 ng/mL
  Tmax: 16.7 h
  half-life: 14.3 h
[2]; [13]
  AUC(0-inf): 224 µg·h/mL
  Cmax: 5770 ng/mL
  Tmax: 8.33 h
  half-life: 18.6 h
[2]; male, po, 20 mg/kg, 3M, 20 mg/kg PO, 100% PEG400 solution, Study 3, Tlast = 96 hours
  AUC(0-t): 215 µg·h/mL
[2]; [14]
  AUC(0-inf): 87 µg·h/mL
  AUC(0-t): 111 µg·h/mL
  Cmax: 3510 ng/mL
  Tmax: 9 h
  half-life: 16.6 h
[2]; [15]
  AUC(0-inf): 757 µg·h/mL
  Cmax: 21000 ng/mL
  Tmax: 1.25 h
  half-life: 14.1 h
[2]; male, po, 22.5 mg/kg, 3M, 22.5 mg/kg PO, PEG400/PVP VA 90:10 solution, Study 6, Tlast = 96 hours
  AUC(0-t): 741 µg·h/mL
[3]; [16]
  Cmax: 27100 ng/mL
  AUC(0-t): 366 µg·h/mL
  Tmax: 1 to 7 h
[3]; [17]
  Cmax: 33400 ng/mL
  AUC(0-t): 451 µg·h/mL
  Tmax: 2 to 4 h
[3]; [18]
  Cmax: 93100 ng/mL
  AUC(0-t): 93.1 µg·h/mL
[3]; [19]
  Cmax: 96100 ng/mL
  AUC(0-t): 1300 µg·h/mL
  Tmax: 2 to 7 h
[3]; [20]
  Cmax: 83200 ng/mL
  AUC(0-t): 1140 µg·h/mL
  Tmax: 2 to 4 h
[3]; [21]
  Cmax: 83200 ng/mL
  AUC(0-t): 83.2 µg·h/mL
[3]; male, 30 mg/kg/day, male, Day 0 (first day of dosing), 30 mg/kg/day
  Cmax: 24400 ng/mL
[3]; [22]
  AUC(0-t): 247 µg·h/mL
  Tmax: 2 to 4 h
[3]; [23]
  Cmax: 26700 ng/mL
  AUC(0-t): 305 µg·h/mL
  Tmax: 2 h
[3]; [24]
  Cmax: 96700 ng/mL
  AUC(0-t): 1410 µg·h/mL
  Tmax: 7 to 9 h
[3]; [25]
  Cmax: 63900 ng/mL
  AUC(0-t): 803 µg·h/mL
  Tmax: 2 to 7 h
[3]; [26]
  Cmax: 83200 ng/mL
  AUC(0-t): 898 µg·h/mL
  Tmax: 2 to 4 h
[3]; [27]
  Cmax: 90800 ng/mL
  AUC(0-t): 1120 µg·h/mL
  Tmax: 2 to 9 h
[4]; [28]
  increase in AUC0-24h with dose: 5.8 fold
  increase in Cmax with dose: 5.5 fold
[4]; [29]
  increase in AUC0-24h with dose: 23 fold
  increase in Cmax with dose: 20 fold
[4]; escalated single oral doses vs MTD upon 14 days of dosing in dogs
  relation of single doses to maximum tolerated dose (MTD): greater than the maximum tolerated dose (MTD) upon 14 days of dosing in dogs
[4]; female beagles, 10, 50, and 250 mg/kg/day PO for 14 days
  toxicity findings: moribundity and mortality resulted in early termination of the 50 and 250 mg/kg dose groups
[4]
  Cmax: 263,000 ng/mL
[4]; Cmax
  Cmax: 290000 ng/mL
[5]
  Ctrough at steady state targeted in humans: 4640 ng/mL
